Where a SMILES comes first, the peptide text is derived from it. [ ]: non-standard residue; d: D form. The star is where a group is joined. pGlu = O=C1CC[C@@H](C(=O)O)N1; Octanoyl = CCCCCCCC(=O)*
What was measured:
[1] = test system: B6 Macrophage cells; test: Viability of macrophages activated by LPS and palmitic acid (LDH Cytotoxicity Assay Kit); type: cell-based, mouse; details: ZEP3 50 μg/ml, LPS 100 ng/ml; for OD (LDH Cytotoxicity Assay): 24 hours
Procedure: Macrophages originating from C57BL/6 mice were cultured at a density of 200,000 cells/mL in a 24-well plate (500 μl well) and incubated at 37° C. and 5% CO2 overnight. Following the overnight incubation, media were replaced with fresh media containing 100 ng/mL LPS, followed by three hours incubation. The LPS-containing media in the treatment groups were then replaced with fresh media containing ZEP3 at concentration of 50 μg/ml, followed by one-hour incubation. Next, palmitic acid (100, 200 or 400 μM) was added to the appropriate wells. The plates were incubated for additional 24 hours and the viability of cells was estimated using an LDH Cytotoxicity Assay Kit.

[2] = test system: IL-6; test: IL-6 in corneal epithelial cell culture dry eye disease model; type: cell-based, human
Procedure: (§1) The anti-inflammatory effect of the peptides in experimental corneal inflammation was tested in a cell culture model using various inflammasome inducers such as LPS, 4-HNE, Nigericin and others to model a dry-eye-disease (DED). Using a dose-response model, human primary corneal epithelial cells were pre-treated with the peptides followed by exposure to DED inducers. Expression of IL-6 was measured as well as cell viability, ROS production.
(§2) Human primary Corneal Epithelial Cells (PCS-700-010; HCECs) were treated with ZEP3 at concentrations ranging from 3 to 12 μg/ml for 2 hours then exposed to LPS, 4-HNE or Nigericin for 24 hours. Following incubation, the levels of the pro-inflammatory cytokine IL-6, cell viability and reactive oxygen species (ROS) production in the cell cultures were measured.

[3] = test system: Reactive Oxygen Species (ROS); test: ROS production in corneal epithelial cell culture dry eye disease model; type: cell-based, human
Procedure: as §1, §2

[4] = test system: Human primary Corneal Epithelial Cells; test: Cell viability (LDH assay) in corneal epithelial cell culture dry eye disease model; type: cell-based
Procedure: as §1, §2

[5] = test system: IL-10; test: IL-10 production in LPS-stimulated human PBMCs; type: cell-based; details: ZEP3 40, 100 and 150 μg/ml, 1 hr pre-treatment, LPS 24 hours; 4 donors
Procedure: (§3) The effect of the peptide ZEP3 (SEQ ID NO: 1) on cytokine production was evaluated in an in vitro human model of inflammation. Human Peripheral Blood Mononuclear Cells (PBMCs) were stimulated using Lipopolysaccharide (LPS) to produce cytokines.
(§4) Method: Briefly, cryopreserved human PBMCs of four healthy non-smokers, not on any corticosteroids or other inflammatory drugs, were grown in RPMI 1640 with 10% heat inactivated fetal bovine serum (FBS), 100 U/ml penicillin and 100 μg/mL streptomycin (complete growth medium, CGM).
(§5) Human PBMCs were thawed and plated for all groups (1-6, Table 7), and rested for 1 hour before treatment. […] 24 hours post LPS addition, Almar Blue fluorescent at 585 nm (correlating with cell viability), is measured and supernatant is collected for cytokine determination. […]
(§6) Detailed method: cells were thawed according to manufacturer's instructions, washed in CGM and assessed for viability using trypan blue staining. […] At 24 hours post LPS stimulation, plates were read for assessment of cell viability and cell culture supernatants were harvested and stored at −80° C. for cytokine analysis. […] Cytokine production and percentage of sample stimulation vs. the average of the stimulation control were calculated.

[6] = test system: IL-1B; test: IL-1B production in LPS-stimulated human PBMCs; type: cell-based; details: ZEP3 40, 100 and 150 μg/ml, 1 hr pre-treatment, LPS 24 hours; 4 donors
Procedure: as §3, §4, §5, §6

[7] = test system: RANTES; test: RANTES production in LPS-stimulated human PBMCs; type: cell-based; details: ZEP3 40, 100 and 150 μg/ml, 1 hr pre-treatment, LPS 24 hours; 4 donors (FIG. 12)
Procedure: as §3, §4, §5, §6

[8] = test system: IL-1beta; test: Expression of IL-1 beta by Nigericin-activated macrophages; type: cell-based, mouse; set-up: IL-1beta: unit not given here; details: ZEP4 50 μg/mL, LPS 100 ng/mL, Nigericin 20 mM
Procedure: Macrophage cells originating from C7BL/6 mice were cultured at a density of 200,000 cells/mL in a 24-well plate (500 μl wells) and incubated at 37° C. and […] overnight. Following the overnight incubation, media were replaced with fresh media containing 100 ng/mL LPS. Three hours later, the LPS-containing media were replaced with fresh media containing 50 μg/ml ZEP4 to treatment wells. Following one-hour incubation, Nigericin (20 mM) aliquots were added to the ZEP4 treated and LPS control wells. The plates were incubated for additional 24 hour and the amount of IL-1beta in each well was measured. Reduction in […] production in the treatment group was calculated relative to cells treated with LPS and nigericin (LPS+N).

| Compound | OD (LDH Cytotoxicity Assay) ([1]; palmitic acid 100 μM) | OD (LDH Cytotoxicity Assay) ([1]; palmitic acid 200 μM) | OD (LDH Cytotoxicity Assay) ([1]; palmitic acid 400 μM) | effect on the viability of inflammation-induced macrophage cells ([1]; palmitic acid 100, 200 or 400 μM) | level of IL-6 in cell culture ([2]; HCECs pre-treated with ZEP3 (3 to 12 μg/ml, 2 hours), exposed to 4-HNE for 24 hr (FIG. 7)) [pg/mL] | reduction of IL-6 level ([2]; ZEP3 treated vs untreated cell culture, 4-HNE 24 hr (FIG. 7)) [%] | level of ROS in cell culture ([3]; HCECs pre-treated with ZEP3, exposed to 4-HNE for 24 hours, DCFDA kit (FIG. 8)) [RFU] | reduction of ROS level ([3]; ZEP3 treated vs untreated cell culture, 4-HNE 24 hours (FIG. 8)) [%] | cell death density ([4]; HCECs treated with ZEP3 and exposed to inflammation inducer, LDH assay (FIG. 6)) [%] | reduction of cell death density ([4]; ZEP3 treated vs untreated cell culture (FIG. 6)) [%] | IL-10 production (FIG. 10) [5] | IL-1B production [6] | RANTES production [7] | IL-1beta ([8]; 24 hour) | % reduction of IL-1beta ([8]; relative to LPS and nigericin (LPS+N)) [%] |
| --- | --- | --- | --- | --- | --- | --- | --- | --- | --- | --- | --- | --- | --- | --- | --- |
| CCCCCCCC(=O)NCCCC[C@H](NC(=O)[C@H](Cc1c[nH]c2ccccc12)NC(=O)[C@H](CC(N)=O)NC(=O)[C@@H]1CCC(=O)N1)C(=O)O [ZEP3, pGlu-Asn-Trp-Lys(Octanoyl)-OH] ([pGlu]NWK(Octanoyl)-OH) | 1.437 | 1.496 | 1.6095 | no significant effect | 38.1 ± 1.37 | 27.4 | 13000±800 | 51.9 | 3.625±1.092 | 82.8 | significant reduction | significant reduction | significant reduction | – | – |
| C[C@@H](O)[C@H](NC(=O)[C@H](Cc1c[nH]c2ccccc12)NC(=O)[C@H](CC(N)=O)NC(=O)[C@@H]1CCC(=O)N1)C(=O)O [ZEP4, pGlu-Asn-Trp-Thr-OH] (HELM PEPTIDE1{[Glp].N.W.T}$$$$V2.0) | – | – | – | – | – | – | – | – | – | – | – | – | – | 157.1 | 53.8 |

Source: patent US11419913B2, “Pharmaceutical compositions for inhibiting inflammatory cytokines” (S.I.S. SHULOV INNOVATIVE SCIENCE LTD., priority 2018, dated 2022)
